Experimental data from patent publication US9365523B2, “Imidazolyl amide compounds and uses related thereto” (priority 2011, dated 2016).

test system: MeV-Alaska; experiment: Antiviral activity of compound analogs against MeV-Alaska (tables 1-5); format: cell-based, measles virus; settings: Measles morbillivirus; Table 5

| EC50 | Structure (SMILES) |
| --- | --- |
| 16 µM | Cc1ccc(NC(=O)CSc2nc3cccnc3n2-c2ccccc2)c(Cl)c1 [Compound 147] |
| > 75 µM | Cc1ccc(N(Cc2ccc(F)cc2)C(=O)C(C)Sc2nc(-c3ccccc3)c(-c3ccccc3)n2Cc2ccc(F)cc2)c(Cl)c1 (stereo not shown) [Compound 167] |
| > 75 µM | Cc1cc2nc(SC(C)C(=O)Nc3ncc(Cl)cc3Cl)[nH]c2cc1C (stereo not shown) [Compound 133] |
| 12.2 µM | CCC(Sc1nc2ccccc2n1-c1ccc(OC)cc1)C(=O)Nc1ncc(Cl)cc1Cl (stereo not shown) [Compound 131] |
| > 75 µM | COc1ccc(-n2c(/C=C/C(=O)Nc3ccc(C)cc3Cl)nc3ccccc32)cc1 [Compound 161] |
| > 150 µM | COc1ccc(-n2c(CCC(=O)Nc3ccc(C)cc3Cl)nc3ccccc32)cc1 [Compound 159] |
| 1.2 µM | Cc1ccc(NC(=O)C(C)Sc2nc3cccnc3n2-c2ccccc2)c(Cl)c1 (stereo not shown) [Compound 146] |
| > 75 µM | Cc1cccc(-n2c(SCCNc3ccccc3)nc3ccccc32)c1 [Compound 172] |
| > 75 µM | COc1ccc(-n2c(S(=O)(=O)CC(=O)Nc3ccc(C)cc3Cl)nc3ccccc32)cc1 [Compound 141] |
| > 75 µM | COc1ccc(-n2c(SC(C)C(=O)N(C)c3ccc(Cl)cc3Cl)nc3ccccc32)cc1 (stereo not shown) [Compound 149] |
| > 75 µM | COc1ccc(-n2c(SC(C)C(=O)N3CCCCC3)nc3ccccc32)cc1 (stereo not shown) [Compound 124] |
| > 75 µM | Cc1ccc(NC(=O)CSc2nc(-c3ccccc3)c(-c3ccccc3)[nH]2)c(Cl)c1 [Compound 142] |
| > 50 µM | Cc1ccc(NC(=O)c2ccccc2-c2nc3ccccc3n2-c2ccccc2)c(Cl)c1 [Compound 163] |
| > 75 µM | CCOC(=O)c1ccc2[nH]c(SC(C)C(=O)Nc3ccc(C)cc3Cl)nc2c1 (stereo not shown) [Compound 126] |
| > 75 µM | COc1ccc(-n2ccnc2SC(C)C(=O)Nc2ncc(Cl)cc2Cl)cc1 (stereo not shown) [Compound 132] |
| > 75 µM | COc1ccc(-n2c(CCC(=O)Nc3ncc(C)cc3Cl)nc3ccccc32)cc1 [Compound 135] |
| > 75 µM | CCOC(=O)c1ccc2c(c1)nc(SC(C)C(=O)N(Cc1ccc(OC)cc1)c1ncc(Cl)cc1Cl)n2Cc1ccc(OC)cc1 (stereo not shown) [Compound 134] |
| > 75 µM | Cc1cc2nc(SC(C)C(=O)N(Cc3ccc(F)cc3)c3ncc(Cl)cc3Cl)n(Cc3ccc(F)cc3)c2cc1C (stereo not shown) [Compound 157] |
| > 75 µM | Cc1ccc(NC(=O)C(C)(C)[S+]([O-])c2nc3ccccc3n2-c2ccccc2)c(Cl)c1 (stereo not shown) [Compound 171] |
| > 75 µM | Cc1ccc(NC(=O)/C=C/c2nc3ccccc3n2-c2ccccc2)c(Cl)c1 [Compound 162] |

| Structure (SMILES) | EC50 |
| --- | --- |
| COc1ccc(-n2c(SC(C)C(=O)Nc3ccc(C)cc3Cl)nc3cccnc32)cc1 (stereo not shown) [Compound 154] | 1.6 µM |

same assay, conditions: Table 1

| Structure (SMILES) | EC50 |
| --- | --- |
| COc1ccc(-n2c(SC(C)C(=O)Nc3ccncc3)nc3ccccc32)cc1 (stereo not shown) [Compound 42] | > 75 µM |
| COc1ccc(-n2c(SC(C)C(=O)Nc3ccc(Cl)cn3)nc3ccccc32)cc1 (stereo not shown) [Compound 38] | 11.5 µM |
| COc1ccc(-n2c(SC(C)C(=O)Nc3ncc(Cl)cc3Cl)nc3ccccc32)cc1 (stereo not shown) [Compound 1] | 0.3 µM |
| COc1ccc(-n2c(SC(C)C(=O)Nc3nc(C)c(C)s3)nc3ccccc32)cc1 (stereo not shown) [Compound 54] | 2.5 µM |
| COc1ccc(-n2c(SC(C)C(=O)Nc3ccc(Cl)cc3Cl)nc3ccccc32)cc1 (stereo not shown) [Compound 12] | 0.4 µM |
| COc1ccc(-n2c(SC(C)C(=O)Nc3cccnc3)nc3ccccc32)cc1 (stereo not shown) [Compound 23] | 8.4 µM |
| COc1ccc(-n2c(SC(C)C(=O)Nc3ncc(C(F)(F)F)cc3Cl)nc3ccccc32)cc1 (stereo not shown) [Compound 3] | 0.4 µM |
| COc1ccc(-n2c(SC(C)C(=O)Nc3cc(C)on3)nc3ccccc32)cc1 (stereo not shown) [Compound 55] | 0.49 µM |
| COc1ccc(-n2c(SC(C)C(=O)Nc3ncccn3)nc3ccccc32)cc1 (stereo not shown) [Compound 29] | 2 µM |
| COc1ccc(-n2c(SC(C)C(=O)Nc3cccc([N+](=O)[O-])c3)nc3ccccc32)cc1 (stereo not shown) [Compound 33] | 4.6 µM |
| COc1ccc(-n2c(SC(C)C(=O)Nc3ccccc3Cl)nc3ccccc32)cc1 (stereo not shown) [Compound 50] | 0.14 µM |
| COc1ccc(-n2c(SC(C)C(=O)Nc3nc(Cl)ccc3Cl)nc3ccccc32)cc1 (stereo not shown) [Compound 4] | 0.3 µM |
| COc1ccc(-n2c(SC(C)C(=O)Nc3cc(Cl)ccc3Cl)nc3ccccc32)cc1 (stereo not shown) [Compound 46] | 0.5 µM |
| COc1ccc(-n2c(SC(C)C(=O)Nc3cccc(Cl)c3)nc3ccccc32)cc1 (stereo not shown) [Compound 14] | 0.5 µM |
| COc1ccc(-n2c(SC(C)C(=O)Nc3ccc(NC(C)=O)c(C)c3)nc3ccccc32)cc1 (stereo not shown) [Compound 17] | > 9.3 µM |
| COc1ccc(-n2c(SC(C)C(=O)Nc3ncc(Br)cn3)nc3ccccc32)cc1 (stereo not shown) [Compound 8] | 4.1 µM |
| COc1ccc(-n2c(SC(C)C(=O)Nc3cccc(N)c3)nc3ccccc32)cc1 (stereo not shown) [Compound 51] | 7 µM |
| COc1ccc(-n2c(SC(C)C(=O)Nc3ccc(C)c(Cl)c3)nc3ccccc32)cc1 (stereo not shown) [Compound 21] | 0.4 µM |
| COc1ccc(-n2c(SC(C)C(=O)Nc3ccc(C)cc3)nc3ccccc32)cc1 (stereo not shown) [Compound 49] | 0.7 µM |
| COc1ccc(-n2c(SC(C)C(=O)Nc3nc(C)c(Cl)cc3Cl)nc3ccccc32)cc1 (stereo not shown) [Compound 43] | 0.3 µM |
| COc1ccc(-n2c(SC(C)C(=O)Nc3cc(Br)ccc3Br)nc3ccccc32)cc1 (stereo not shown) [Compound 2] | 1.7 µM |
| COc1ccc(-n2c(SC(C)C(=O)Nc3ccc(Cl)c(C)c3)nc3ccccc32)cc1 (stereo not shown) [Compound 40] | 6.7 µM |
| COc1ccc(-n2c(SC(C)C(=O)Nc3cc(Cl)nc(Cl)c3)nc3ccccc32)cc1 (stereo not shown) [Compound 22] | > 75 µM |
| COc1ccc(-n2c(SC(C)C(=O)Nc3c(Cl)cccc3Cl)nc3ccccc32)cc1 (stereo not shown) [Compound 28] | 2 µM |
| COc1ccc(-n2c(SC(C)C(=O)Nc3nc(Cl)cc(Cl)n3)nc3ccccc32)cc1 (stereo not shown) [Compound 44] | > 75 µM |
| COc1ccc(-n2c(SC(C)C(=O)Nc3ccc(C#N)cn3)nc3ccccc32)cc1 (stereo not shown) [Compound 26] | > 75 µM |
| COc1ccc(-n2c(SC(C)C(=O)Nc3ccc(C)cn3)nc3ccccc32)cc1 (stereo not shown) [Compound 24] | 0.5 µM |
| COc1ccc(-n2c(SC(C)C(=O)Nc3cc(OC)cc(OC)c3)nc3ccccc32)cc1 (stereo not shown) [Compound 13] | > 75 µM |

same assay, conditions: Table 2

| Structure (SMILES) | EC50 |
| --- | --- |
| Cc1ccc(NC(=O)C(C)Sc2nc3ccccc3n2-c2ccc(OCC(=O)O)cc2)c(Cl)c1 (stereo not shown) [Compound 68] | > 9.3 µM |
| Cc1ccc(NC(=O)C(C)Sc2nc3ccccc3n2C2CCCCC2)c(Cl)c1 (stereo not shown) [Compound 88] | 0.29 µM |
| Cc1ccc(NC(=O)C(C)Sc2nc3ccccc3n2-c2ccc(N3CCOCC3)cc2)c(Cl)c1 (stereo not shown) [Compound 84] | 0.3 µM |
| Cc1ccc(NC(=O)C(C)Sc2nc3ccccc3n2-c2ccccc2CN2CCN(C)CC2)c(Cl)c1 (stereo not shown) [Compound 67] | 0.18 µM |
| CCOc1ccc(-n2c(SC(C)C(=O)Nc3ccc(C)cc3Cl)nc3ccccc32)cc1 (stereo not shown) [Compound 73] | 0.05 µM |
| Cc1ccc(NC(=O)C(C)Sc2nc3ccccc3n2C(=O)c2ccccc2)c(Cl)c1 (stereo not shown) [Compound 91] | > 9.3 µM |
| Cc1ccc(NC(=O)C(C)Sc2nc3ccccc3n2C2CCN(C)CC2)c(Cl)c1 (stereo not shown) [Compound 94] | 1.5 µM |
| Cc1cccc(-n2c(SC(C)C(=O)Nc3ccc(C)cc3Cl)nc3ccccc32)c1 (stereo not shown) [Compound 75] | 0.1 µM |
| Cc1ccc(NC(=O)C(C)Sc2nc3ccccc3n2-c2ccc(N3CCN(C)CC3)cc2)c(Cl)c1 (stereo not shown) [Compound 70] | 2 µM |
| Cc1ccc(NC(=O)C(C)Sc2nc3ccccc3n2C2CCN(C(=O)OC(C)(C)C)CC2)c(Cl)c1 (stereo not shown) [Compound 93] | 0.6 µM |
| COc1ccc(-n2c(SC(C)C(=O)Nc3ccc(C)cc3Cl)nc3ccccc32)cc1 (stereo not shown) [Compound 86] | 0.17 µM |
| Cc1ccc(NC(=O)C(C)Sc2nc3ccccc3n2-c2ccc(CN3CCOCC3)cc2)c(Cl)c1 (stereo not shown) [Compound 56] | 0.32 µM |
| CC(=O)NCCOc1ccc(-n2c(SC(C)C(=O)Nc3ccc(C)cc3Cl)nc3ccccc32)cc1 (stereo not shown) [Compound 61] | > 10 µM |
| Cc1ccc(NC(=O)C(C)Sc2nc3ccccc3n2S(=O)(=O)c2ccccc2)c(Cl)c1 (stereo not shown) [Compound 90] | 0.04 µM |
| Cc1ccc(NC(=O)C(C)Sc2nc3ccccc3n2-c2ccc(CO)cc2)c(Cl)c1 (stereo not shown) [Compound 81] | 3.91 µM |
| COC(=O)COc1ccc(-n2c(SC(C)C(=O)Nc3ccc(C)cc3Cl)nc3ccccc32)cc1 (stereo not shown) [Compound 69] | > 9.3 µM |
| Cc1ccc(NC(=O)C(C)Sc2nc3ccccc3n2-c2ccc(NCCN(C)C)cc2)c(Cl)c1 (stereo not shown) [Compound 59] | 4.2 µM |
| CNCCc1ccc(-n2c(SC(C)C(=O)Nc3ccc(C)cc3Cl)nc3ccccc32)cc1 (stereo not shown) [Compound 66] | 8.7 µM |
| Cc1ccc(NC(=O)C(C)Sc2nc3ccccc3n2-c2ccc(CC=O)cc2)c(Cl)c1 (stereo not shown) [Compound 62] | 8.5 µM |
| COC(=O)c1ccc(-n2c(SC(C)C(=O)Nc3ccc(C)cc3Cl)nc3ccccc32)cc1 (stereo not shown) [Compound 99] | 1.1 µM |
| Cc1ccc(NC(=O)C(C)Sc2nc3ccccc3n2-c2ccc(N(C)CCN(C)C)cc2)c(Cl)c1 (stereo not shown) [Compound 60] | 2.9 µM |
| Cc1ccc(NC(=O)C(C)Sc2nc3ccccc3n2-c2ccc(CCO)cc2)c(Cl)c1 (stereo not shown) [Compound 64] | 2.5 µM |

same assay, conditions: Table 3

| Structure (SMILES) | EC50 |
| --- | --- |
| Cc1nnc(NC(=O)C(C)Sc2nc3ccccc3n2-c2ccc(F)cc2)nc1C (stereo not shown) [Compound 106] | 23 µM |
| CC(Sc1nc2ccccc2n1Cc1ccccc1)C(=O)Nc1ncc(Cl)cc1Cl (stereo not shown) [Compound 111] | 4.9 µM |
| COc1cccc(-n2c(SC(C)C(=O)Nc3ncc(C)cc3Cl)nc3ccccc32)c1 (stereo not shown) [Compound 108] | 0.4 µM |
| CCOc1ccc(-n2c(SC(C)C(=O)Nc3ncc(Cl)cc3Cl)nc3ccccc32)cc1 (stereo not shown) [Compound 102] | 0.2 µM |
| CCOc1ccc(-n2c(SC(C)C(=O)Nc3ccc([N+](=O)[O-])cc3C)nc3ccccc32)cc1 (stereo not shown) [Compound 110] | > 9.3 µM |
| COc1ccc(Cn2c(SC(C)C(=O)Nc3ccc(Cl)cc3Cl)nc3ccccc32)cc1 (stereo not shown) [Compound 117] | 1.7 µM |
| CC(Sc1nc2ccccc2n1-c1ccc(F)cc1)C(=O)Nc1ncc(Cl)cc1Cl (stereo not shown) [Compound 101] | 0.3 µM |

same assay, conditions: in our assays

| Structure (SMILES) | MeV inhibitory activity |
| --- | --- |
| O=C(CSc1nnc(Br)n1-c1ccc(C2CC2)c2ccccc12)Nc1ccc(C(=O)O)cc1Cl [RDEA-806, 4-(2-((5-bromo-4-(4-cyclopropylnaphthalen-1-yl)-4H-1,2,4-triazol-3-yl)thio)acetamido)-3-chlorobenzoic acid, reference compound] | lacks MeV inhibitory activity |
